Source: patent US8895077B2, “Methods for preventing or treating infectious diseases caused by extracellular microorganisms, including antimicrobial-resistant strains thereof, using gallium compounds” (priority 2007, dated 2014)

Assays:
[1] = test system: Vancomycin-resistant Enterococcus faecalis (VRE); assay: CLSI Vancomycin disk-diffusion test; format: cell-based; details: VRE ATCC 51575; CLSI Vancomycin resistant range: ≦14 mm
[2] = healthy adults; intravenous infusion for at least 7 days; from U.S. Pat. No. 6,203,822; cited from earlier work
Salmonella typhi = assay: MIC/MBC susceptibility test, macrodilution broth method; format: cell-based; details: Salmonella typhi ATCC 6539; Tryptic soy agar with 5% sheep blood; 36° C. for 48 hours; 8.3 × 10^5 CFU/ml
Method: (§1) Susceptibility of various microorganisms to gallium was tested by determining the minimum inhibitory concentration (MIC) and minimum bactericidal concentration (MBC) for each microorganism using gallium nitrate. In general, MIC is determined by (i) mixing a series of broths, each containing a standard number of microorganisms, with serially diluted solutions of the gallium compound; and (ii) determining the MIC, after incubation, that is the lowest concentration of the gallium compound that inhibits the growth of the microorganism. The lower the MIC, the more susceptible the organism is. The MBC is determined by subculturing an aliquot of each sample from the MIC test on an appropriate agar plate containing no gallium compound.
(§2) Specifically, in the present experiment, two grams of gallium nitrate powder were dissolved in 10 ml of filter-sterilized deionized water and the resulting 20% (w/v) (i.e., 200 mg/ml) solution was once again filter-sterilized. Two-fold serial dilutions were prepared in sterile deionized water down to 0.156% (i.e., 1.56 mg/ml) for the tests for most of the organisms, except for the test for Candida albicans, in which 10%, 1%, 0.5%, 0.1%, 0.05%, 0.01%, 0.005% and 0.001% of gallium nitrate solutions were prepared.
(§3) All organisms were obtained from the American Type Culture Collection (ATCC), Manassas, Va. Each microorganism was picked from the seed culture (see Table 1) and inoculated in an appropriate type of broth to obtain a 0.5 McFarland turbidity standard. The standard suspension of the microorganism was then diluted to 1:100 with the broth and used for the tests.
(§4) Each microorganism was tested in duplicate by either a microdilution broth method in 96-well plates (i.e., 0.1 ml of the gallium nitrate solution mixed with 0.1 ml of the microorganism suspension) or a macrodilution broth method in test tubes (i.e., 1 ml of the gallium nitrate solution mixed with 1 ml of the microorganism suspension) as follows: […]
(§5) The growth of the microorganisms were determined by visual observation of turbidity in the samples. […]

[3] = test system: Vancomycin-resistant Enterococcus faecalis (VRE); assay: as above; format: cell-based; details: VRE ATCC 51575; Tryptic soy agar with 5% sheep blood; 36° C. for 48 hours; 3.9 × 10^5 CFU/ml
Method: as §1, §2, §3, §4, §5

[4] = test system: Methicillin-resistant Staphylococcus aureus (MRSA); assay: as above; format: cell-based; details: MRSA ATCC 33592; Tryptic soy agar with 5% sheep blood; 36° C. for 48 hours; 5.2 × 10^5 CFU/ml
Method: as §1, §2, §3, §4, §5

Campylobacter jejuni = assay: MIC/MBC susceptibility test, microdilution broth method; format: cell-based; details: Campylobacter jejuni ATCC 29428; Tryptic soy agar with 5% sheep blood; 36° C. for 48 hours; 4.9 × 10^5 CFU/ml
Method: as §1, §2, §3
(§6) Each microorganism was tested in duplicate by either a microdilution broth method in 96-well plates (i.e., 0.1 ml of the gallium nitrate solution mixed with 0.1 ml of the microorganism suspension) or a macrodilution broth method in test tubes (i.e., 1 ml of the gallium nitrate solution mixed with 1 ml of the microorganism suspension) as follows:
(§7) Microdilution broth method: Candida albicans; Escherichia coli O157:H7; and Campylobacter jejuni.
(§8) The growth of the microorganisms were determined by visual observation of turbidity in the samples.
(§9) To determine MBC, 10 μl of each sample used in MIC were inoculated onto an appropriate agar plate and incubated.

Escherichia coli O157:H7 = assay: as above; format: cell-based; details: E. coli O157:H7 ATCC 35150; Tryptic soy agar with 5% sheep blood; 36° C. for 48 hours; 1.38 × 10^6 CFU/ml
Method: as §1, §2, §3, §6, §7, §8, §9

Candida albicans = assay: as above; format: cell-based; details: Candida albicans ATCC 10231, 27° C. for 48 hours, 9.75 × 10^5 CFU/ml
Method: as §1, §2, §3, §6, §7, §8, §9

Compound | zone of inhibition [1] | tolerated dose [2] | MBC (Salmonella typhi) | MBC [3] | MBC [4] | MBC (Campylobacter jejuni) | MBC (Escherichia coli O157:H7) | MIC (Candida albicans; Sabouraud Dextrose broth) | MBC (Candida albicans; Sabouraud dextrose agar)
CN[C@H](CC(C)C)C(=O)N[C@H]1C(=O)N[C@@H](CC(N)=O)C(=O)N[C@H]2C(=O)N[C@H]3C(=O)N[C@H](C(=O)N[C@H](C(=O)O)c4cc(O)cc(O)c4-c4cc3ccc4O)[C@H](O)c3ccc(c(Cl)c3)Oc3cc2cc(c3O[C@@H]2O[C@H](CO)[C@@H](O)[C@H](O)[C@H]2O[C@H]2C[C@](C)(N)[C@H](O)[C@H](C)O2)Oc2ccc(cc2Cl)[C@H]1O [Vancomycin] | ^bAntibiotics resistance of the organism was confirmed by CLSI Vancomycin disk-diffusion test. The zone of inhibition was 10 mm (CLSI Vancomycin resistant range: ≦14 mm). | – | – | – | – | – | – | – | –
O=[N+]([O-])[O-].O=[N+]([O-])[O-].O=[N+]([O-])[O-].[Ga+3] [gallium nitrate] | – | at least 200 mg/m^2/day | 6.25 mg/mL | 25 mg/mL | 12.5 mg/mL | <0.78 mg/mL | 6.25 mg/mL | 10 mg/mL | >100 mg/mL
